{"source": "the supplement of paper PMC11061612", "key": {"[1]": {"tested_on": "U-698-M", "test": "combination Emax (second highest fraction inhibited in the dose matrix, 72 h); higher = more inhibition", "settings": "B-Cell Non-Hodgkin's Lymphoma", "method_in_brief": "(§1)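 Bliss excess equals the observed combination effect minus the expected value EA + EB − EA·EB, where EA and EB are the effects of each agent alone. Combination Emax is the second-highest inhibition within the matrix. Inhibition was scaled from CellTiter-Glo 2.0 luminescence, with 0 set by vehicle wells and 1 by blank wells, after 72 hours of two-drug dosing of cells plated in 1536-well plates.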"}, "[2]": {"tested_on": "U-698-M", "test": "Bliss excess, mean over the matrix (fraction); higher = more synergy", "settings": "U-[…], B-Cell Non-Hodgkin's Lymphoma", "method_in_brief": "as §1"}, "[3]": {"settings": "first compound max 1 µM, partner max 3 µM, 7x7"}, "[4]": {"settings": "first compound max 10 µM, partner max 10 µM, 7x7"}, "[5]": {"settings": "first compound max 1 µM, partner max 0.3 µM, 7x7"}, "[6]": {"settings": "first compound max 1 µM, partner max 1 µM, 7x7, may be a limit of the assay"}, "[7]": {"settings": "first compound max 1 µM, partner max 1 µM, 7x7"}, "[8]": {"settings": "first compound max 1 µM, partner max 10 µM, 7x7"}, "[9]": {"settings": "first compound max 10 µM, partner max 1 µM, 7x7"}, "[10]": {"settings": "first compound max 1 µM, partner max 10 µM"}}, "data": [{"smiles": "CC1(C)CCC(CN2CCN(c3ccc(C(=O)NS(=O)(=O)c4ccc(NCC5CCOCC5)c([N+](=O)[O-])c4)c(Oc4cnc5[nH]ccc5c4)c3)CC2)=C(c2ccc(Cl)cc2)C1", "note": "[Venetoclax] + C[C@@H](Nc1cc(F)cc(F)c1)c1cc(C(=O)N(C)C)cc2c(=O)cc(N3CCOCC3)oc12 [AZD8186]", "values": [{"measurement": "combination Emax", "setting": "[1]; [3]", "value": 0.564}, {"measurement": "Bliss excess", "setting": "[2]; [3]", "value": -0.0045}]}, {"smiles": "C[C@@H]1COCCN1c1cc(C2([S@](C)(=N)=O)CC2)nc(-c2ccnc3[nH]ccc23)n1", "note": "[AZD6738] + C1CC(C1)(C(=O)[O-])C(=O)[O-].N.N.[Pt+2] [Carboplatin]", "values": [{"measurement": "combination Emax", "setting": "[1]; [4]", "value": 0.84}, {"measurement": "Bliss excess", "setting": "[2]; [4]", "value": -0.0625}]}, {"smiles": "CN(CCO)CC[C@H](CSc1ccccc1)Nc1ccc(S(=O)(=O)NC(=O)c2ccc(N3CCC([C@@H](O)c4ccccc4-c4ccc(Cl)cc4)CC3)cc2)cc1S(=O)(=O)C(F)(F)F", "note": "[AZD4320] + Nc1ccn([C@@H]2O[C@H](CO)[C@@H](O)C2(F)F)c(=O)n1 [Gemcitabine]", "values": [{"measurement": "combination Emax", "setting": "[1]; [5]", "value": 0.595}, {"measurement": "Bliss excess", "setting": "[2]; [5]", "value": -0.0159}]}, {"smiles": "Cc1c2c(nn1C)CSCc1cc(n(C)n1)CSc1cc(c3ccccc3c1)OCCCc1c(C(=O)O)n(C)c3c-2c(Cl)ccc13", "note": "[AZD5991] + CN(C)CCCOc1ccc(-c2ccc3ncc4c(c3c2)n(C2CCOCC2)c(=O)n4C)cn1 [AZD0156]", "values": [{"measurement": "combination Emax", "setting": "[1]; [6]", "value": 1}, {"measurement": "Bliss excess", "setting": "[2]; [7]", "value": 0.0036}]}, {"smiles": "C[C@@H](c1ccc2nccn2c1)n1nnc2ncc(-c3cnn(C)c3)nc21", "note": "[Savolitinib] + CC1(C)CCC(CN2CCN(c3ccc(C(=O)NS(=O)(=O)c4ccc(NCC5CCOCC5)c([N+](=O)[O-])c4)c(Oc4cnc5[nH]ccc5c4)c3)CC2)=C(c2ccc(Cl)cc2)C1 [Venetoclax]", "values": [{"measurement": "combination Emax", "setting": "[1]; [7]", "value": 0.191}, {"measurement": "Bliss excess", "setting": "[2]; [7]", "value": -0.0313}]}, {"smiles": "CC1(C)CCC(CN2CCN(c3ccc(C(=O)NS(=O)(=O)c4ccc(NCC5CCOCC5)c([N+](=O)[O-])c4)c(Oc4cnc5[nH]ccc5c4)c3)CC2)=C(c2ccc(Cl)cc2)C1", "note": "[Venetoclax] + COc1cc(Nc2ncc3c(n2)-c2ccc(Cl)cc2C(c2c(F)cccc2OC)=NC3)ccc1C(=O)O [Alisertib]", "values": [{"measurement": "combination Emax", "setting": "[1]; [8]", "value": 0.592}, {"measurement": "Bliss excess", "setting": "[2]; [8]", "value": 0.0827}]}, {"smiles": "CN(CCO)CC[C@H](CSc1ccccc1)Nc1ccc(S(=O)(=O)NC(=O)c2ccc(N3CCC([C@@H](O)c4ccccc4-c4ccc(Cl)cc4)CC3)cc2)cc1S(=O)(=O)C(F)(F)F", "note": "[AZD4320] + C[C@@H](Nc1cc(F)cc(F)c1)c1cc(C(=O)N(C)C)cc2c(=O)cc(N3CCOCC3)oc12 [AZD8186]", "values": [{"measurement": "combination Emax", "setting": "[1]; [3]", "value": 0.348}, {"measurement": "Bliss excess", "setting": "[2]; [3]", "value": 0.0074}]}, {"smiles": "Cn1cnc2c(F)c(Nc3ccc(Br)cc3Cl)c(C(=O)NOCCO)cc21", "note": "[Selumetinib] + C[C@@H]1COCCN1C2=NC(=NC(=C2)C3(CC3)[S@](=N)(=O)C)C4=C5C=CNC5=NC=C4 [AZD6738]", "values": [{"measurement": "combination Emax", "setting": "[1]; [4]", "value": 0.766}, {"measurement": "Bliss excess", "setting": "[2]; [4]", "value": -0.0501}]}, {"smiles": "Cc1c2c(nn1C)CSCc1cc(n(C)n1)CSc1cc(c3ccccc3c1)OCCCc1c(C(=O)O)n(C)c3c-2c(Cl)ccc13", "note": "[AZD5991] + CS(=O)(=O)CCNCc1ccc(-c2ccc3ncnc(Nc4ccc(OCc5cccc(F)c5)c(Cl)c4)c3c2)o1 [Lapatinib]", "values": [{"measurement": "combination Emax", "setting": "[1]; [8]", "value": 0.992}, {"measurement": "Bliss excess", "setting": "[2]; [8]", "value": 0.0295}]}, {"smiles": "Cc1cc2ncnn2cc1Nc1ncc2c(n1)n(C1CCOCC1)c(=O)n2C", "note": "[AZD7648] + CCN(CCO)CCCOc1ccc2c(Nc3cc(CC(=O)Nc4cccc(F)c4)[nH]n3)ncnc2c1 [AZD2811]", "values": [{"measurement": "combination Emax", "setting": "[1]; [9]", "value": 0.444}, {"measurement": "Bliss excess", "setting": "[2]; [9]", "value": 0.0631}]}, {"smiles": "COc1cccc(OCCCN)c1-c1cc(Nc2cnc(C#N)cn2)n[nH]1", "note": "[Prexasertib] + CCc1c2c(nc3ccc(O)cc13)-c1cc3c(c(=O)n1C2)COC(=O)[C@]3(O)CC [SN-38]", "values": [{"measurement": "combination Emax", "setting": "[1]; first compound max 1 µM, partner max 0.3 µM, 7x7, may be a limit of the assay", "value": 1}, {"measurement": "Bliss excess", "setting": "[2]; [5]", "value": 0.0237}]}, {"smiles": "Cn1cnc2c(F)c(Nc3ccc(Br)cc3Cl)c(C(=O)NOCCO)cc21", "note": "[Selumetinib] + CCN(CCO)CCCOc1ccc2c(Nc3cc(CC(=O)Nc4cccc(F)c4)[nH]n3)ncnc2c1 [AZD2811]", "values": [{"measurement": "combination Emax", "setting": "[1]; [9]", "value": 0.253}, {"measurement": "Bliss excess", "setting": "[2]; [9]", "value": 0.0099}]}, {"smiles": "CC1(C)CCC(CN2CCN(c3ccc(C(=O)NS(=O)(=O)c4ccc(NCC5CCOCC5)c([N+](=O)[O-])c4)c(Oc4cnc5[nH]ccc5c4)c3)CC2)=C(c2ccc(Cl)cc2)C1", "note": "[Venetoclax] + C1CN(CCC1(C(=O)N[C@@H](CCO)C2=CC=C(C=C2)Cl)N)C3=NC=NC4=C3C=CN4 [Capivasertib]", "values": [{"measurement": "combination Emax", "setting": "[1]; [3]", "value": 0.756}, {"measurement": "Bliss excess", "setting": "[2]; [3]", "value": -0.0112}]}, {"smiles": "Cc1c2c(nn1C)CSCc1cc(n(C)n1)CSc1cc(c3ccccc3c1)OCCCc1c(C(=O)O)n(C)c3c-2c(Cl)ccc13", "note": "[AZD5991] + CCN(CCO)CCCOc1ccc2c(Nc3cc(CC(=O)Nc4cccc(F)c4)[nH]n3)ncnc2c1 [AZD2811]", "values": [{"measurement": "combination Emax", "setting": "[1]; [6]", "value": 1}, {"measurement": "Bliss excess", "setting": "[2]; [7]", "value": 0.0024}]}, {"smiles": "C=CCn1c(=O)c2cnc(Nc3ccc(N4CCN(C)CC4)cc3)nc2n1-c1cccc(C(C)(C)O)n1", "note": "[AZD1775] + O=C(c1cc(Cc2n[nH]c(=O)c3ccccc23)ccc1F)N1CCN(C(=O)C2CC2)CC1 [Olaparib]", "values": [{"measurement": "combination Emax", "setting": "[1]; [10]", "value": 0.967}, {"measurement": "Bliss excess", "setting": "[2]; [10]", "value": -0.0077}]}, {"smiles": "CCN(CCO)CCCOc1ccc2c(Nc3cc(CC(=O)Nc4cccc(F)c4)[nH]n3)ncnc2c1", "note": "[AZD2811] + O=C(c1cc(Cc2n[nH]c(=O)c3ccccc23)ccc1F)N1CCN(C(=O)C2CC2)CC1 [Olaparib]", "values": [{"measurement": "combination Emax", "setting": "[1]; [8]", "value": 0.479}, {"measurement": "Bliss excess", "setting": "[2]; [8]", "value": 0.0384}]}, {"smiles": "Cc1c2c(nn1C)CSCc1cc(n(C)n1)CSc1cc(c3ccccc3c1)OCCCc1c(C(=O)O)n(C)c3c-2c(Cl)ccc13", "note": "[AZD5991] + C1CN(CCC1(C(=O)N[C@@H](CCO)C2=CC=C(C=C2)Cl)N)C3=NC=NC4=C3C=CN4 [Capivasertib]", "values": [{"measurement": "combination Emax", "setting": "[1]; first compound max 1 µM, partner max 3 µM, 7x7, may be a limit of the assay", "value": 1}, {"measurement": "Bliss excess", "setting": "[2]; [3]", "value": -0.0016}]}, {"smiles": "CC(=O)c1c(C)c2cnc(Nc3ccc(N4CCNCC4)cn3)nc2n(C2CCCC2)c1=O", "note": "[Palbociclib] + Cc1c2c(nn1C)CSCc1cc(n(C)n1)CSc1cc(c3ccccc3c1)OCCCc1c(C(=O)O)n(C)c3c-2c(Cl)ccc13 [AZD5991]", "values": [{"measurement": "combination Emax", "setting": "[1]; [9]", "value": 0.98}, {"measurement": "Bliss excess", "setting": "[2]; [9]", "value": -0.0228}]}, {"smiles": "CCN(CCO)CCCOc1ccc2c(Nc3cc(CC(=O)Nc4cccc(F)c4)[nH]n3)ncnc2c1", "note": "[AZD2811] + C[C@@H]1COCCN1C2=NC(=NC(=C2)C3(CC3)[S@](=N)(=O)C)C4=C5C=CNC5=NC=C4 [AZD6738]", "values": [{"measurement": "combination Emax", "setting": "[1]; [8]", "value": 0.956}, {"measurement": "Bliss excess", "setting": "[2]; [8]", "value": 0.0016}]}, {"smiles": "C[C@@H](Nc1cc(F)cc(F)c1)c1cc(C(=O)N(C)C)cc2c(=O)cc(N3CCOCC3)oc12", "note": "[AZD8186] + CC(=O)c1c(C)c2cnc(Nc3ccc(N4CCNCC4)cn3)nc2n(C2CCCC2)c1=O [Palbociclib]", "values": [{"measurement": "combination Emax", "setting": "[1]; [4]", "value": 0.499}, {"measurement": "Bliss excess", "setting": "[2]; [4]", "value": -0.0019}]}, {"smiles": "CC1(C)CCC(CN2CCN(c3ccc(C(=O)NS(=O)(=O)c4ccc(NCC5CCOCC5)c([N+](=O)[O-])c4)c(Oc4cnc5[nH]ccc5c4)c3)CC2)=C(c2ccc(Cl)cc2)C1", "note": "[Venetoclax] + Cn1cnc2c(F)c(Nc3ccc(Br)cc3Cl)c(C(=O)NOCCO)cc21 [Selumetinib]", "values": [{"measurement": "combination Emax", "setting": "[1]; [3]", "value": 0.408}, {"measurement": "Bliss excess", "setting": "[2]; [3]", "value": -0.0473}]}, {"smiles": "COc1cccc(OCCCN)c1-c1cc(Nc2cnc(C#N)cn2)n[nH]1", "note": "[Prexasertib] + C[C@@H]1COCCN1C2=NC(=NC(=C2)C3(CC3)[S@](=N)(=O)C)C4=C5C=CNC5=NC=C4 [AZD6738]", "values": [{"measurement": "combination Emax", "setting": "[1]; [8]", "value": 0.996}, {"measurement": "Bliss excess", "setting": "[2]; [8]", "value": -0.0348}]}, {"smiles": "CC(=O)c1c(C)c2cnc(Nc3ccc(N4CCNCC4)cn3)nc2n(C2CCCC2)c1=O", "note": "[Palbociclib] + CC1(C)CCC(CN2CCN(c3ccc(C(=O)NS(=O)(=O)c4ccc(NCC5CCOCC5)c([N+](=O)[O-])c4)c(Oc4cnc5[nH]ccc5c4)c3)CC2)=C(c2ccc(Cl)cc2)C1 [Venetoclax]", "values": [{"measurement": "combination Emax", "setting": "[1]; [9]", "value": 0.548}, {"measurement": "Bliss excess", "setting": "[2]; [9]", "value": -0.0676}]}, {"smiles": "COc1cccc2c1C(=O)c1c(O)c3c(c(O)c1C2=O)C[C@@](O)(C(=O)CO)C[C@@H]3O[C@H]1C[C@H](N)[C@H](O)[C@H](C)O1", "note": "[Doxorubicin] + Cc1cc2ncnn2cc1Nc1ncc2c(n1)n(C1CCOCC1)c(=O)n2C [AZD7648]", "values": [{"measurement": "combination Emax", "setting": "[1]; [8]", "value": 0.909}, {"measurement": "Bliss excess", "setting": "[2]; [8]", "value": 0.084}]}, {"smiles": "C[C@@H](Nc1cc(F)cc(F)c1)c1cc(C(=O)N(C)C)cc2c(=O)cc(N3CCOCC3)oc12", "note": "[AZD8186] + C1CN(CCC1(C(=O)N[C@@H](CCO)C2=CC=C(C=C2)Cl)N)C3=NC=NC4=C3C=CN4 [AZD5363]", "values": [{"measurement": "combination Emax", "setting": "[1]; [4]", "value": 0.349}, {"measurement": "Bliss excess", "setting": "[2]; [4]", "value": -0.0592}]}]}
